The target in the assay is mitochondrial complex I (NADH:ubiquinone oxidoreductase) (Mus musculus, UniProt P03888+Q91WD5+Q9DC70). Type of assay: biochemical.

In PMC9623604 (European journal of pharmacology, 2022) one finds IC50 data, which are given here for one molecule.

Each structure is given as a SMILES string.

As usually defined, the IC50 is the concentration that inhibits the measured activity by half. The low end stands for greater potency, the high end for weaker potency.

In turn, `CN(C)C(=N)N=C(N)N` [metformin] yielded an IC50 of approximately 2000 µM.
